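These data come from cells grown in 96-well plates and exposed to compound for 48 hours at five concentrations. Here, GI50 denotes the concentration required for 50% inhibition of growth. At the TGI there is no net growth.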
How the values were obtained:
Experiment in all cases: growth of human tumour cells (NCI), 48 h
786-0 renal = system: 786-0 renal
A498 renal = system: A498 renal
A549 NSCLC = system: A549 NSCLC
ACHN renal = system: ACHN renal
BT-549 breast = system: BT-549 breast
CAKI-1 renal = system: CAKI-1 renal
CCRF-CEM leukemia = system: CCRF-CEM leukemia
COLO 205 colon = system: COLO 205 colon
DU-145 prostate = system: DU-145 prostate
EKVX NSCLC = system: EKVX NSCLC
HCC-2998 colon = system: HCC-2998 colon
HCT-116 colon = system: HCT-116 colon
HCT-15 colon = system: HCT-15 colon
HL-60(TB) leukemia = system: HL-60(TB) leukemia
HOP-62 NSCLC = system: HOP-62 NSCLC
HOP-92 NSCLC = system: HOP-92 NSCLC
HS 578T breast = system: HS 578T breast
HT29 colon = system: HT29 colon
IGROV1 ovarian = system: IGROV1 ovarian
K-562 leukemia = system: K-562 leukemia
KM12 colon = system: KM12 colon
LOX IMVI melanoma = system: LOX IMVI melanoma
M14 melanoma = system: M14 melanoma
MALME-3M melanoma = system: MALME-3M melanoma
MCF7 breast = system: MCF7 breast
MDA-MB-231 breast = system: MDA-MB-231 breast
MDA-MB-435 = system: MDA-MB-435
MOLT-4 leukemia = system: MOLT-4 leukemia
NCI-H226 lung = system: NCI-H226 lung
NCI-H23 lung = system: NCI-H23 lung
NCI-H460 lung = system: NCI-H460 lung
NCI-H522 lung = system: NCI-H522 lung
NCI/ADR-RES ovarian = system: NCI/ADR-RES ovarian
OVCAR-3 ovarian = system: OVCAR-3 ovarian
OVCAR-4 ovarian = system: OVCAR-4 ovarian
OVCAR-5 ovarian = system: OVCAR-5 ovarian
OVCAR-8 ovarian = system: OVCAR-8 ovarian
PC-3 prostate = system: PC-3 prostate
RPMI-8226 leukemia = system: RPMI-8226 leukemia
SF-268 CNS = system: SF-268 CNS
SF-295 CNS = system: SF-295 CNS
SF-539 CNS = system: SF-539 CNS
SK-MEL-2 melanoma = system: SK-MEL-2 melanoma
SK-MEL-28 melanoma = system: SK-MEL-28 melanoma
SK-MEL-5 melanoma = system: SK-MEL-5 melanoma
SN12C renal = system: SN12C renal
SNB-19 CNS = system: SNB-19 CNS
SNB-75 CNS = system: SNB-75 CNS
SR leukemia = system: SR leukemia
T-47D breast = system: T-47D breast
TK-10 renal = system: TK-10 renal
U251 CNS = system: U251 CNS
UACC-257 melanoma = system: UACC-257 melanoma
UACC-62 melanoma = system: UACC-62 melanoma
UO-31 renal = system: UO-31 renal
SK-OV-3 ovarian = system: SK-OV-3 ovarian
SW-620 colon = system: SW-620 colon

COc1cccc(C2SCC(=O)N2c2ccc(-c3ccc(-n4c(-c5ccccc5)nc5ccccc5c4=O)cc3)cc2)c1OC (configuration not stated)
TGI (786-0 renal): > 100 µM | TGI (A498 renal): > 100 µM | TGI (A549 NSCLC): > 100 µM | TGI (ACHN renal): > 100 µM | TGI (BT-549 breast): > 100 µM | TGI (CAKI-1 renal): > 100 µM | TGI (CCRF-CEM leukemia): > 100 µM | TGI (COLO 205 colon): > 100 µM | TGI (DU-145 prostate): > 100 µM | TGI (EKVX NSCLC): > 100 µM | TGI (HCC-2998 colon): > 100 µM | TGI (HCT-116 colon): > 100 µM | TGI (HCT-15 colon): > 100 µM | TGI (HL-60(TB) leukemia): > 100 µM | TGI (HOP-62 NSCLC): > 100 µM | TGI (HOP-92 NSCLC): > 100 µM | TGI (HS 578T breast): > 100 µM | TGI (HT29 colon): > 100 µM | TGI (IGROV1 ovarian): > 100 µM | TGI (K-562 leukemia): > 100 µM | TGI (KM12 colon): > 100 µM | TGI (LOX IMVI melanoma): > 100 µM | TGI (M14 melanoma): > 100 µM | TGI (MALME-3M melanoma): > 100 µM | TGI (MCF7 breast): > 100 µM | TGI (MDA-MB-231 breast): > 100 µM | TGI (MDA-MB-435): > 100 µM | TGI (MOLT-4 leukemia): > 100 µM | TGI (NCI-H226 lung): > 100 µM | TGI (NCI-H23 lung): > 100 µM | TGI (NCI-H460 lung): > 100 µM | TGI (NCI-H522 lung): > 100 µM | TGI (NCI/ADR-RES ovarian): > 100 µM | TGI (OVCAR-3 ovarian): > 100 µM | TGI (OVCAR-4 ovarian): > 100 µM | TGI (OVCAR-5 ovarian): > 100 µM | TGI (OVCAR-8 ovarian): > 100 µM | TGI (PC-3 prostate): > 100 µM | TGI (RPMI-8226 leukemia): > 100 µM | TGI (SF-268 CNS): > 100 µM | TGI (SF-295 CNS): > 100 µM | TGI (SF-539 CNS): > 100 µM | TGI (SK-MEL-2 melanoma): > 100 µM | TGI (SK-MEL-28 melanoma): > 100 µM | TGI (SK-MEL-5 melanoma): > 100 µM | TGI (SN12C renal): > 100 µM | TGI (SNB-19 CNS): > 100 µM | TGI (SNB-75 CNS): 89.1 µM | TGI (SR leukemia): > 100 µM | TGI (T-47D breast): > 100 µM | TGI (TK-10 renal): > 100 µM | TGI (U251 CNS): > 100 µM | TGI (UACC-257 melanoma): > 100 µM | TGI (UACC-62 melanoma): > 100 µM | TGI (UO-31 renal): > 100 µM

COc1ccc(C(=O)C2C(C#N)C(C#N)C3C=Cc4ccccc4N32)cc1 (configuration not stated)
GI50 (786-0 renal): 4.43 µM | TGI (786-0 renal): > 100 µM | GI50 (A498 renal): 0.244 µM | TGI (A498 renal): 3.13 µM | GI50 (A549 NSCLC): 2.4 µM | TGI (A549 NSCLC): > 100 µM | GI50 (ACHN renal): 1.43 µM | TGI (ACHN renal): > 100 µM | GI50 (BT-549 breast): 1.98 µM | TGI (BT-549 breast): > 100 µM | GI50 (CAKI-1 renal): 0.46 µM | TGI (CAKI-1 renal): > 100 µM | GI50 (CCRF-CEM leukemia): 1.94 µM | TGI (CCRF-CEM leukemia): > 100 µM | GI50 (DU-145 prostate): 2.93 µM | TGI (DU-145 prostate): > 100 µM | GI50 (EKVX NSCLC): 6.29 µM | TGI (EKVX NSCLC): > 100 µM | GI50 (HCC-2998 colon): 2.99 µM | TGI (HCC-2998 colon): > 100 µM | GI50 (HCT-116 colon): 0.653 µM | TGI (HCT-116 colon): 14.9 µM | GI50 (HCT-15 colon): 0.844 µM | TGI (HCT-15 colon): > 100 µM | GI50 (HL-60(TB) leukemia): 1.23 µM | TGI (HL-60(TB) leukemia): 19.5 µM | GI50 (HOP-62 NSCLC): 3.76 µM | TGI (HOP-62 NSCLC): > 100 µM | GI50 (HOP-92 NSCLC): 2.77 µM | TGI (HOP-92 NSCLC): > 100 µM | GI50 (HS 578T breast): 2.1 µM | TGI (HS 578T breast): > 100 µM | GI50 (HT29 colon): 0.742 µM | TGI (HT29 colon): > 100 µM | GI50 (IGROV1 ovarian): 2.74 µM | TGI (IGROV1 ovarian): > 100 µM | GI50 (K-562 leukemia): 0.405 µM | TGI (K-562 leukemia): > 100 µM | GI50 (KM12 colon): 1.25 µM | TGI (KM12 colon): > 100 µM | GI50 (LOX IMVI melanoma): 2.1 µM | TGI (LOX IMVI melanoma): > 100 µM | GI50 (M14 melanoma): 0.5 µM | TGI (M14 melanoma): > 100 µM | GI50 (MALME-3M melanoma): 2.67 µM | TGI (MALME-3M melanoma): > 100 µM | GI50 (MCF7 breast): 1.09 µM | TGI (MCF7 breast): > 100 µM | GI50 (MDA-MB-231 breast): 1.46 µM | TGI (MDA-MB-231 breast): 44.1 µM | GI50 (MDA-MB-435): 0.335 µM | TGI (MDA-MB-435): 1.24 µM | GI50 (MOLT-4 leukemia): 2.6 µM | TGI (MOLT-4 leukemia): > 100 µM | GI50 (NCI-H226 lung): 2.29 µM | TGI (NCI-H226 lung): 30.2 µM | GI50 (NCI-H23 lung): 3.62 µM | TGI (NCI-H23 lung): > 100 µM | GI50 (NCI-H460 lung): 0.749 µM | TGI (NCI-H460 lung): > 100 µM | GI50 (NCI-H522 lung): 2.45 µM | TGI (NCI-H522 lung): > 100 µM | GI50 (NCI/ADR-RES ovarian): 0.571 µM | TGI (NCI/ADR-RES ovarian): > 100 µM | GI50 (OVCAR-3 ovarian): 0.642 µM | TGI (OVCAR-3 ovarian): 4.22 µM | GI50 (OVCAR-4 ovarian): 6 µM | TGI (OVCAR-4 ovarian): > 100 µM | GI50 (OVCAR-5 ovarian): 3.43 µM | TGI (OVCAR-5 ovarian): > 100 µM | GI50 (OVCAR-8 ovarian): 3.29 µM | TGI (OVCAR-8 ovarian): > 100 µM | GI50 (PC-3 prostate): 1.45 µM | TGI (PC-3 prostate): > 100 µM | GI50 (RPMI-8226 leukemia): 3.48 µM | TGI (RPMI-8226 leukemia): > 100 µM | GI50 (SF-268 CNS): 3.92 µM | TGI (SF-268 CNS): > 100 µM | GI50 (SF-295 CNS): 2.82 µM | TGI (SF-295 CNS): > 100 µM | GI50 (SF-539 CNS): 1.32 µM | TGI (SF-539 CNS): 4.08 µM | GI50 (SK-MEL-2 melanoma): 7.44 µM | TGI (SK-MEL-2 melanoma): > 100 µM | GI50 (SK-MEL-28 melanoma): 3.77 µM | TGI (SK-MEL-28 melanoma): > 100 µM | GI50 (SK-MEL-5 melanoma): 3.49 µM | TGI (SK-MEL-5 melanoma): 19.8 µM | GI50 (SK-OV-3 ovarian): 7.3 µM | TGI (SK-OV-3 ovarian): > 100 µM | GI50 (SN12C renal): 2.5 µM | TGI (SN12C renal): > 100 µM | GI50 (SNB-19 CNS): 3.71 µM | TGI (SNB-19 CNS): > 100 µM | GI50 (SNB-75 CNS): 0.278 µM | TGI (SNB-75 CNS): 5.57 µM | GI50 (SR leukemia): 0.544 µM | TGI (SR leukemia): > 100 µM | GI50 (SW-620 colon): 0.714 µM | TGI (SW-620 colon): > 100 µM | GI50 (T-47D breast): 23.9 µM | TGI (T-47D breast): > 100 µM | GI50 (TK-10 renal): > 100 µM | TGI (TK-10 renal): > 100 µM | GI50 (U251 CNS): 2.82 µM | TGI (U251 CNS): > 100 µM | GI50 (UACC-257 melanoma): > 100 µM | TGI (UACC-257 melanoma): > 100 µM | GI50 (UACC-62 melanoma): 0.781 µM | TGI (UACC-62 melanoma): > 100 µM | GI50 (UO-31 renal): 1.95 µM | TGI (UO-31 renal): > 100 µM

— PubChem BioAssay (NCI)
